In brackets after ≈: the same amount, converted by molar mass. Each block holds one compound with its values, some of them ahead of it.
Columns and labels:
[1] = Drug metabolism in human liver S9 fraction assessed as NADPH-dependent glutathione conjugate level at 10 uM after 30 mins by LC-MS/MS analysis; assay type: ADME, subcellular; settings: s9, 0.5 h
[2] = target: T1, Prostaglandin E2 receptor EP3 subtype (Homo sapiens, UniProt P43115); assay: Antagonist activity at human EP3c receptor expressed in human U2OS cells assessed as inhibition of PGE2-induced calcium mobilization after 24 hrs by FLIPR assay; assay type: functional, cell-based
T1 sequence (P43115 whole entry): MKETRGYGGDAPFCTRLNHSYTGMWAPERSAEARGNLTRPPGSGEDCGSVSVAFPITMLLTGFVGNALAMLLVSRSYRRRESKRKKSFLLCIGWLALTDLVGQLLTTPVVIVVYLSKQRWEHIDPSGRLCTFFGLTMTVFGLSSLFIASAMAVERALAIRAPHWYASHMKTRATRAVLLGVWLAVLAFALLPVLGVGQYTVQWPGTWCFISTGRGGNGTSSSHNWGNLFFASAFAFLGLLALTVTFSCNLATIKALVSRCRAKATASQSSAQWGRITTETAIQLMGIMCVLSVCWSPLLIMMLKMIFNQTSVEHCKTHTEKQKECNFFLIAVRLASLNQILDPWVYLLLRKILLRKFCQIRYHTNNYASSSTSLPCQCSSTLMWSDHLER

Rattus norvegicus = assay: Dose-normalized AUC in Sprague-Dawley rat at 2 mg/kg, po; assay type: ADME, organism-based; design: dose 2 mg/kg, route oral; settings: in vivo
[3] = target: T2, Prostaglandin E2 receptor EP3 subtype (Rattus norvegicus, UniProt P34980); assay: Antagonist activity at rat EP3 receptor expressed in human U2OS cells co-expressing Gqi5 assessed as inhibition of PGE2-induced response after 24 hrs by FLIPR assay; assay type: functional, cell-based
T2 sequence (P34980 whole entry): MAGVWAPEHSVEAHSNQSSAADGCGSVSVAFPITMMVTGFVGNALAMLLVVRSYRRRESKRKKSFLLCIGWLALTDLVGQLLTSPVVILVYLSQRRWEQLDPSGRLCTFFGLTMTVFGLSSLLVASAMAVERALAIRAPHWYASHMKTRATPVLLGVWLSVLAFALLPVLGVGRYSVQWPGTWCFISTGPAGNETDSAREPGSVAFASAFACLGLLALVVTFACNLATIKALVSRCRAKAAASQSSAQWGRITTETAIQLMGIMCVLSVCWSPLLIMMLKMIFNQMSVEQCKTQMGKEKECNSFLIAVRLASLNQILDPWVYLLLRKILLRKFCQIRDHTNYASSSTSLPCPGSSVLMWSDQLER

[4] = Drug metabolism in rat liver S9 fraction assessed as glutathione conjugate level at 10 uM after 30 mins by HPLC in absence of NADPH; assay type: ADME, subcellular; settings: s9, 0.5 h
[5] = Half life in Sprague-Dawley rat at 1 mg/kg, iv; assay type: ADME, organism-based; design: dose 1 mg/kg, route intravenous; settings: in vivo
[6] = Drug metabolism in rat liver S9 fraction assessed as NADPH-dependent glutathione conjugate level at 10 uM after 30 mins by LC-MS/MS analysis; assay type: ADME, subcellular; settings: s9, 0.5 h
[7] = Oral bioavailability in Sprague-Dawley rat at 2 mg/kg; assay type: ADME, organism-based; settings: in vivo
[8] = Drug metabolism in human liver S9 fraction assessed as glutathione conjugate level at 10 uM after 30 mins by HPLC in absence of NADPH; assay type: ADME, subcellular; settings: s9, 0.5 h
[9] = Clearance in Sprague-Dawley rat at 1 mg/kg, iv and 2 mg/kg, po; assay type: ADME, organism-based; settings: in vivo
[10] = target: Prostaglandin E2 receptor EP4 subtype (Homo sapiens, UniProt P35408); assay: Binding affinity at human EP4 receptor
[11] = target: T3, Prostaglandin D2 receptor (Homo sapiens, UniProt Q13258); assay: Binding affinity at human DP receptor
T3 sequence (Q13258 whole entry): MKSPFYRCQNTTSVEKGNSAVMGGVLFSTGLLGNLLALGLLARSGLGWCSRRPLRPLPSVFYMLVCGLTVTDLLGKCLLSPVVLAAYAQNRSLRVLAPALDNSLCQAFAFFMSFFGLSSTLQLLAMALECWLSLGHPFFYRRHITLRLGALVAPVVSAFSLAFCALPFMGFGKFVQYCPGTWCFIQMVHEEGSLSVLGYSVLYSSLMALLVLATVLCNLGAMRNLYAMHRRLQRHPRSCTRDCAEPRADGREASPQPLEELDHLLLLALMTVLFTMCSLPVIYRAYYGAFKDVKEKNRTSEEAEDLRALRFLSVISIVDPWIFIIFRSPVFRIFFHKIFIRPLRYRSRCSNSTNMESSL

[12] = target: T4, Prostaglandin E2 receptor EP1 subtype (Homo sapiens, UniProt P34995); assay: Antagonist activity at EP1 receptor in human U2OS cells expressing Gqi5 assessed as inhibition of PGE2-induced response after 24 hrs by FLIPR assay; assay type: functional, cell-based
T4 sequence (P34995 whole entry): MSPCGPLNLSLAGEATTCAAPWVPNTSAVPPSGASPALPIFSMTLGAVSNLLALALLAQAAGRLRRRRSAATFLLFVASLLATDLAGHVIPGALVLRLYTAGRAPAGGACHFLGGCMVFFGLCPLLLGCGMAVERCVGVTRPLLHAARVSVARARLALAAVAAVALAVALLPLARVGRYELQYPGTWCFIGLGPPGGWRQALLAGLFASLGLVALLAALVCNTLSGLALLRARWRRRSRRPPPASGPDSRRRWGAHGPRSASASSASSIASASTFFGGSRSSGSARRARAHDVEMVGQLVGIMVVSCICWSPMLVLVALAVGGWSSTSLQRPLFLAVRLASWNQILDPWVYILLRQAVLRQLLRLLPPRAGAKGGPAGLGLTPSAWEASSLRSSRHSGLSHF

Cytochrome P450 2D6 = Cytochrome P450 2D6 (Homo sapiens, UniProt P10635); assay: Inhibition of CYP2D6; assay type: ADME
Cytochrome P450 2C19 = Cytochrome P450 2C19 (Homo sapiens, UniProt P33261); assay: Inhibition of CYP2C19; assay type: ADME
[13] = target: Voltage-gated inwardly rectifying potassium channel KCNH2 (Homo sapiens, UniProt Q12809); assay: Inhibition of human ERG
Cytochrome P450 2C9 = Cytochrome P450 2C9 (Homo sapiens, UniProt P11712); assay: Inhibition of CYP2C9; assay type: ADME
[14] = target: Prostaglandin E2 receptor EP2 subtype (Homo sapiens, UniProt P43116); assay: Antagonist activity against human EP2 receptor expressed in CHO-K1 cells assessed as inhibition of cAMP production after 4 hrs by FRET signal in LANCE assay; assay type: functional, cell-based
[15] = target: T1, Prostaglandin E2 receptor EP3 subtype; assay: Binding affinity to human EP3
[16] = Aqueous solubility of the compound; assay type: physicochemical; settings: buffer
Cytochrome P450 3A4 = Cytochrome P450 3A4 (Homo sapiens, UniProt P08684); assay: Inhibition of CYP3A4; assay type: ADME
[17] = target: T5, Prostaglandin G/H synthase 2 (Rattus norvegicus, UniProt P35355); assay: Inhibition of COX2 in rat whole blood assessed as decreased PGE2 production; assay type: tissue-based
T5 sequence (P35355 whole entry): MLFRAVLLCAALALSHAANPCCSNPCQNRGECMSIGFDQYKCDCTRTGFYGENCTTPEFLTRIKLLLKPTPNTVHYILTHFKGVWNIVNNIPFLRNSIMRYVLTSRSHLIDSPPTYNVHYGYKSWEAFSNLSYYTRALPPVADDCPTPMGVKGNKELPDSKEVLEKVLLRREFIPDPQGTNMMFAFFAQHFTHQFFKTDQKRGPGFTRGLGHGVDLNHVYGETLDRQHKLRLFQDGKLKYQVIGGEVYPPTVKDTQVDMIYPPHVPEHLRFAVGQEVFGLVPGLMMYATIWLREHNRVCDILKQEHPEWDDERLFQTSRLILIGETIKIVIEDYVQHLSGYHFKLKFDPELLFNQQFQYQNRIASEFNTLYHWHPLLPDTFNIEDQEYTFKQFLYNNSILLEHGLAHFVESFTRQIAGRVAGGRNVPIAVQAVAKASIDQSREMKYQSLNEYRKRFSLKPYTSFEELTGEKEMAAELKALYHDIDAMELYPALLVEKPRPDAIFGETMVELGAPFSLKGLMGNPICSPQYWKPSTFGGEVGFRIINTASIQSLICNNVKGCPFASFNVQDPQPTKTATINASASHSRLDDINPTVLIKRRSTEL

Cytochrome P450 1A2 = target: T6, Cytochrome P450 1A2 (Homo sapiens, UniProt P05177); assay: Inhibition of CYP1A2; assay type: ADME
T6 sequence (P05177 whole entry): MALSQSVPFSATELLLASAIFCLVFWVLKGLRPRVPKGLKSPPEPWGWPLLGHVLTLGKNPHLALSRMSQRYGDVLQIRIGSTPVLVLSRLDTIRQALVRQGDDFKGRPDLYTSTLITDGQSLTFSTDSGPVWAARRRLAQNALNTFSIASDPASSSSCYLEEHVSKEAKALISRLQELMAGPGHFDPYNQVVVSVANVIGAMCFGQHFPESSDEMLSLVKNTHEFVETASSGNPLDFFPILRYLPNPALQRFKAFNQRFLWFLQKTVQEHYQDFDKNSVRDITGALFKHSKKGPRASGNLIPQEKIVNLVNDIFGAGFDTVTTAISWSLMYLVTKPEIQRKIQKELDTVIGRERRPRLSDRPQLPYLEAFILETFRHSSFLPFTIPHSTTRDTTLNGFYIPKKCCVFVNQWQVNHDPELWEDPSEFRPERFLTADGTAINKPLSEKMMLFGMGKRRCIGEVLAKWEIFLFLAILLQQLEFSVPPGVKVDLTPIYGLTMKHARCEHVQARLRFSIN

[18] = target: Prostaglandin F2-alpha receptor (Homo sapiens, UniProt P43088); assay: Antagonist activity at FP receptor in human U2OS cells expressing Gqi5 assessed as inhibition of PGE2-induced response after 48 hrs by FLIPR assay; assay type: functional, cell-based
[19] = target: T7, Prostaglandin G/H synthase 1 (Rattus norvegicus, UniProt Q63921); assay: Inhibition of COX1 in rat whole blood assessed as decreased PGE2 production; assay type: tissue-based
T7 sequence (Q63921 whole entry): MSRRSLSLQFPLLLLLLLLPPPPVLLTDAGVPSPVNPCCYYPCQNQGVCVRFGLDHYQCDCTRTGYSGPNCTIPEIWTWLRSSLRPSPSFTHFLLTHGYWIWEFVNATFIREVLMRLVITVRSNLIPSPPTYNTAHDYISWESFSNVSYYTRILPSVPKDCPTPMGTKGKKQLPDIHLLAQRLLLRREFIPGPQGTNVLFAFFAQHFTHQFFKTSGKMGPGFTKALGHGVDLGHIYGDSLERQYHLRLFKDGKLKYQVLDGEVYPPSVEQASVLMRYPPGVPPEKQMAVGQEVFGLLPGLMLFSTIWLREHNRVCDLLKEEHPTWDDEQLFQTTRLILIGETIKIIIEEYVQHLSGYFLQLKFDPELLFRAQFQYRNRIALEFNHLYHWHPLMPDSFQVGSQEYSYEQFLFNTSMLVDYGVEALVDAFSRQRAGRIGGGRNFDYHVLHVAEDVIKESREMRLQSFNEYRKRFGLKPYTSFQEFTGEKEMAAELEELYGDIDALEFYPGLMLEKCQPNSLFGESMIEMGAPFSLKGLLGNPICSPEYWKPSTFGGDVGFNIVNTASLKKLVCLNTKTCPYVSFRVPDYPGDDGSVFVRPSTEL

Chain of Prostaglandin E2 receptor EP2 subtype (P43116 whole entry): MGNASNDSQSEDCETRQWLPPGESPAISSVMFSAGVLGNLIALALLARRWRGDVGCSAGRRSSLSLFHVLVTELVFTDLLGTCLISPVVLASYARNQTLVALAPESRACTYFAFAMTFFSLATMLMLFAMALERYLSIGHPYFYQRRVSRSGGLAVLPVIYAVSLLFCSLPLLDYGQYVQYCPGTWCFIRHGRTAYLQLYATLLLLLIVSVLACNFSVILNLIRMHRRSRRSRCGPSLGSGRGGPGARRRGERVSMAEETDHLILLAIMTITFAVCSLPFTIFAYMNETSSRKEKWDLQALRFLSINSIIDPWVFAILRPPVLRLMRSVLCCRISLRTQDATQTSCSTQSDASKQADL
Chain of Prostaglandin E2 receptor EP4 subtype (P35408 whole entry): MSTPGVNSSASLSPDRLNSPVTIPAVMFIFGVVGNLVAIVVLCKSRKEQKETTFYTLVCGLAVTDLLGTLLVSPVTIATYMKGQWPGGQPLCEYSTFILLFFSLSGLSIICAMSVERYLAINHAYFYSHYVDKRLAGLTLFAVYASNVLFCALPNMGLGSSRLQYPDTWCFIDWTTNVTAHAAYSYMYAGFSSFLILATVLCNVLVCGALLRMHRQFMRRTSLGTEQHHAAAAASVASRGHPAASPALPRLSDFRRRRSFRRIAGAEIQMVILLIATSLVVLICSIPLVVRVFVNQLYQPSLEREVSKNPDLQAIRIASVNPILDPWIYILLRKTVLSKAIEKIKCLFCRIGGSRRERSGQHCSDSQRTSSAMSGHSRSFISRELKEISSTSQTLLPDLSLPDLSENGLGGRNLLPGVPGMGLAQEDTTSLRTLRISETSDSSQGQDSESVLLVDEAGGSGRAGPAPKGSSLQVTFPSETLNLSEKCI
Chain of Cytochrome P450 2C9 (P11712 whole entry): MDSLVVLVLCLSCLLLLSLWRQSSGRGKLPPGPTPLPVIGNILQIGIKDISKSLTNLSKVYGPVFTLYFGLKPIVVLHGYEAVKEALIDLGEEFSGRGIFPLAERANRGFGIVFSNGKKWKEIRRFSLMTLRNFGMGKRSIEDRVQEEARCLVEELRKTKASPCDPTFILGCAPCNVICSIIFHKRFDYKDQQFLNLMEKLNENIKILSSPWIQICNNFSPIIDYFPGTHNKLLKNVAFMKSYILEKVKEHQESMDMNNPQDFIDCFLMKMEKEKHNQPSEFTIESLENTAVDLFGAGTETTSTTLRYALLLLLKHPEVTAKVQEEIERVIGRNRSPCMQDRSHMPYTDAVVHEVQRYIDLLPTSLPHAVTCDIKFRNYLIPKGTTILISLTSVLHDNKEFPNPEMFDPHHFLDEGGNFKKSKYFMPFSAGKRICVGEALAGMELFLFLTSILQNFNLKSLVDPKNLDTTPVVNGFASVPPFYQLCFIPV
Chain of Cytochrome P450 3A4 (P08684 whole entry): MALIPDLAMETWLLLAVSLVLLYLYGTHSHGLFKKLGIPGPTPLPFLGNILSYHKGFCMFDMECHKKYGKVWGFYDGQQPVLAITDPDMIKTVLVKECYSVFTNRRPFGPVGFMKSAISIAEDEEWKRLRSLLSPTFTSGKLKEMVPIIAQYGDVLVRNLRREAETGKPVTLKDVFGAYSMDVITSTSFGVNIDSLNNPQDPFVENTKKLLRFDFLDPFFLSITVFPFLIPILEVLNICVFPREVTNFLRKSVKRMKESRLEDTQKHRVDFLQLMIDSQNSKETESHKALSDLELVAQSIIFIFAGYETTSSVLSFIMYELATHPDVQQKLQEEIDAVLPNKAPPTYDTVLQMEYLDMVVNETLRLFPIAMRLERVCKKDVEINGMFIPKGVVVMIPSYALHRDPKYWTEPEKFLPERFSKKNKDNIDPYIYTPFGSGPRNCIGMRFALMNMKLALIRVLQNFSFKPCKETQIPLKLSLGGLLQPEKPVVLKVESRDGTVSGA
Chain of Voltage-gated inwardly rectifying potassium channel KCNH2 (Q12809 whole entry): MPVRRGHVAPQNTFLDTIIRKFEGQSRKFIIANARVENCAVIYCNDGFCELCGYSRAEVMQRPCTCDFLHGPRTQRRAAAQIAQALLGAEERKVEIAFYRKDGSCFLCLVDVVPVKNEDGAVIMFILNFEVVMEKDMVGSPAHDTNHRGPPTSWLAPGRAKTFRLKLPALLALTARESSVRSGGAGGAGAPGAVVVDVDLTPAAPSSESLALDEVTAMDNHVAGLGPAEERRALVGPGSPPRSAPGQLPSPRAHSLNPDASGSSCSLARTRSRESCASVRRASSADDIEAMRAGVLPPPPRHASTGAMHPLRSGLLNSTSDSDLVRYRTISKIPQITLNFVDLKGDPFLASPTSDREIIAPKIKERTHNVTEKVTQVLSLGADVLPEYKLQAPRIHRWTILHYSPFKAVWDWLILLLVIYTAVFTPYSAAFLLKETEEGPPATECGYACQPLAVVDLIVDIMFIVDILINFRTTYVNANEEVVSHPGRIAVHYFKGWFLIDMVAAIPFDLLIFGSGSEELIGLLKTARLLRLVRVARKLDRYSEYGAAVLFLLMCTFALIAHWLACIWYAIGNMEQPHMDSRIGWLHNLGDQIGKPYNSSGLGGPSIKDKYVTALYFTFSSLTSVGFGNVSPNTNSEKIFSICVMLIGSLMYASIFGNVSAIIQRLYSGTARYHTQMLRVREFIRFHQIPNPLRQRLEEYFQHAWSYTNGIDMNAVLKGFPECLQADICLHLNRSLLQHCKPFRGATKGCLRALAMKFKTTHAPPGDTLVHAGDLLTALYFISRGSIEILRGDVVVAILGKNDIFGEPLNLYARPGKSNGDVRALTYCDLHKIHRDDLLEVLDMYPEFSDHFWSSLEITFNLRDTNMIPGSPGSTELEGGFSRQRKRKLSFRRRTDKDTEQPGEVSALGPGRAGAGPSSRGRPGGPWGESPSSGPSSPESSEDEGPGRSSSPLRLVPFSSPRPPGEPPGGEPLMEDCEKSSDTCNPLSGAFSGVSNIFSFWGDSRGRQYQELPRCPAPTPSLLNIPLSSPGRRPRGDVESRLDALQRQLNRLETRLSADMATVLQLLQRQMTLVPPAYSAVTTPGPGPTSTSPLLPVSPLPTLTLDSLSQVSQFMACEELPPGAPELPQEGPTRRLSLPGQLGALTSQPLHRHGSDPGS
Chain of Cytochrome P450 2C19 (P33261 whole entry): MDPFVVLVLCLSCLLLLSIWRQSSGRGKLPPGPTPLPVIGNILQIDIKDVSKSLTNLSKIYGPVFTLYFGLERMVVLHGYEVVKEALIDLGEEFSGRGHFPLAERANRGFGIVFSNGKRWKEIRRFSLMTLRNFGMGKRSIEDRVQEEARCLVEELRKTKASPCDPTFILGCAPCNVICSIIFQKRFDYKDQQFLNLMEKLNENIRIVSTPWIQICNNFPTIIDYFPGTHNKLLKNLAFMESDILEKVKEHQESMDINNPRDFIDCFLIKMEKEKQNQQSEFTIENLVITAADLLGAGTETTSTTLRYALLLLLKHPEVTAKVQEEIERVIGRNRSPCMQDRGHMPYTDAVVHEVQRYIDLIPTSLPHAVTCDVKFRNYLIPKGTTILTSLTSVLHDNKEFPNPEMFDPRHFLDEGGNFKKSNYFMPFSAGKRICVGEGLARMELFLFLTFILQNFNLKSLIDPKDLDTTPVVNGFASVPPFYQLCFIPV
Chain of Prostaglandin F2-alpha receptor (P43088 whole entry): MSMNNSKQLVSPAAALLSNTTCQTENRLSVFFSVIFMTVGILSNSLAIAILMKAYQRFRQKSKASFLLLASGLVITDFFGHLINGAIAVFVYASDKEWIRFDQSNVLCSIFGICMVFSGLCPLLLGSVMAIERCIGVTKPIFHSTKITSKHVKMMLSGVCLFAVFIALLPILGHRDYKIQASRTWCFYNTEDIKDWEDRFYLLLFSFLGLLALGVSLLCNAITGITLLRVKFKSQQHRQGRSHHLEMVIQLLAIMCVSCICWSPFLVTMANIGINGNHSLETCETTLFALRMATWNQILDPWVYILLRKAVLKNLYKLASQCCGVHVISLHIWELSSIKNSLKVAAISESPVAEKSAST
Chain of Cytochrome P450 2D6 (P10635 whole entry): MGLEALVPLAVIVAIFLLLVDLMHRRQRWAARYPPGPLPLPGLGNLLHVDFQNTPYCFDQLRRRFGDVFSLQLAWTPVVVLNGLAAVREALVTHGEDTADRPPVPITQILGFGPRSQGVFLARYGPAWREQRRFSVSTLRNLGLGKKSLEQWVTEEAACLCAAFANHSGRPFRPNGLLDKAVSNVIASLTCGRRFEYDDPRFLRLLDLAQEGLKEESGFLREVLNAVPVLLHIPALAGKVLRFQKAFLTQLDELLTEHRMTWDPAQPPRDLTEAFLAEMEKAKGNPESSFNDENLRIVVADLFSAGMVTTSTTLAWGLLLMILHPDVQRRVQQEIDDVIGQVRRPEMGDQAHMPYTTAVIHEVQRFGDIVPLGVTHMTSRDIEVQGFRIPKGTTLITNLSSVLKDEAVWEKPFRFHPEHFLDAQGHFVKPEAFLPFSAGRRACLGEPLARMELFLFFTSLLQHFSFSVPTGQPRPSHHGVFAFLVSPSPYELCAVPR

Drug metabolism [1]: Not Active | Ki [2]: 0.00316 µM | AUC/dose (Rattus norvegicus): 5.6 µg·h/mL/mg/kg | Ki [3]: 0.00316 µM | Drug metabolism [4]: Not Active | half-life [5]: 3.9 h | Drug metabolism [6]: Not Active | bioavailability [7]: 93% | Drug metabolism [8]: Not Active | clearance [9]: 2.8 mL/min/kg
Structure (SMILES): CC(C)C1(c2ccc(-c3ccc4cccc(F)c4c3)[nH]c2=O)OC(=O)NC1=O (stereo not drawn)

IC50 [10]: > 50.1 µM | Drug metabolism [1]: Not Active | IC50 [11]: > 50.1 µM | Ki [2]: 0.01 µM | Ki [12]: > 50.1 µM | IC50 (Cytochrome P450 2D6): > 50.1 µM | IC50 (Cytochrome P450 2C19): > 50.1 µM | AUC/dose (Rattus norvegicus): 5.5 µg·h/mL/mg/kg | Ki [3]: 0.01 µM | half-life [5]: 4 h | Drug metabolism [6]: Active | IC50 (Cytochrome P450 2C9): > 50.1 µM | bioavailability [7]: 83% | IC50 [14]: > 50.1 µM | Ki [15]: 0.00501 µM | solubility [16]: 193 µM (≈ 69.9 µg/mL) | IC50 (Cytochrome P450 3A4): > 50.1 µM | IC50 [17]: > 100 µM | IC50 (Cytochrome P450 1A2): > 50.1 µM | IC50 [18]: > 50.1 µM | clearance [9]: 2.6 mL/min/kg | IC50 [19]: > 100 µM
Structure (SMILES): CC(C)C1(c2ccc(-c3ccc4ccccc4c3)[nH]c2=O)OC(O)=NC1=O (stereo not drawn)
IC50 [13]: > 50.1 µM

Source: ChEMBL document CHEMBL2034937, “Novel 3-Oxazolidinedione-6-aryl-pyridinones as Potent, Selective, and Orally Active EP3 Receptor Antagonists” (ACS Med Chem Lett, 2010)
